The target of this assay is T1, COX-2 (Homo sapiens, UniProt P35354).
T1 construct: purchased
T1 sequence (P35354 18-604): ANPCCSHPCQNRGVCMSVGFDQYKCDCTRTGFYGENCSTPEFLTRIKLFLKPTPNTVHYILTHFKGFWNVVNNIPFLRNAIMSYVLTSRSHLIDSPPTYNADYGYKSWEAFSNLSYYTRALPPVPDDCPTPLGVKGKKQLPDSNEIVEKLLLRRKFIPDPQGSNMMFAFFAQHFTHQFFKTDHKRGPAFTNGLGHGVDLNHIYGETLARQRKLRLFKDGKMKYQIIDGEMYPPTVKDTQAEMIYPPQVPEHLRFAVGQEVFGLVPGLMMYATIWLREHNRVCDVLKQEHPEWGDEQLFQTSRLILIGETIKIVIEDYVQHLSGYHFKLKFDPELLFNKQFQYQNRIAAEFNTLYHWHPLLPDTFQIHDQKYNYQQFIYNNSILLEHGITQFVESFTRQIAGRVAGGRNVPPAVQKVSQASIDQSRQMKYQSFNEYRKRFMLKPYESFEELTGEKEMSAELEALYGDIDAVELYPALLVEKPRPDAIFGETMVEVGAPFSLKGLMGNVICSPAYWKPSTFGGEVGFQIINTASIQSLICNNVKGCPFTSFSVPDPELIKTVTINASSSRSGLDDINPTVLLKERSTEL
In words: COX-2 enzyme assay with oxygen monitoring system (Example 3). Type of assay: biochemical. The following applies: for Specific Activity: the higher this number the more selective for COX-2 as opposed to COX-1.

Method: The present example describes an enzyme assay method using an oxygen monitoring system to monitor the COX inhibitory activity of fruit extracts. In this assay the changes of concentration of dissolved oxygen are constantly monitored by an oxygen electrode in a Dissolved Oxygen Measuring System (Instech, Plymouth Meeting, Pa.). The output is recorded by a linear Recorder (Fisher Scientific, Pittsburgh, Pa.).
Each day a fresh potassium chloride solution (15 g/100 ml distilled water) was made and the electrode was set up according to manufacturers instructions. The chamber is kept at 37° C.
A prostaglandin assay kit was used and the assay set up in a manner similar to that described for the COX-1 assay. Briefly, 50 μl phenol was added to 20 ml 100 mM Tris buffer, warmed to 37° C. for 1 minute (working buffer). To a tube of hematin 0.9 ml of the working buffer was added. 50 μl 0.1NaOH was added to an arachidonic acid vial and vortexed. 0.43 ml water was added and the solution mixed again. Samples of extracts were weighed and dissolved in the working buffer to a final concentration of 0.1 g/ml. Buffer, samples or diluted samples are used in the enzyme assays directly.
The enzyme assay is performed according to the manufacturer's instruction, which should be well known to those of skill in the art. Briefly, 600 μl of working buffer were drawn into the chamber from the overflow outlet with the injection valve close, and the main outlet connected to a syringe in the right orientation. The stir bar was set a speed of 3 k/min. At 1 minute intervals, 5 ul enzyme, 15 ul hematin solution, 6 ul buffer or sample or diluted sample and 8 ul arachidonic acid solution was injected. The oxygen concentration changes were transformed into mV and recorded.

On to `CC(=O)Oc1ccccc1C(=O)O` [Aspirin], for which the “Specific Activity” value is recorded as 0.5.

As for `O=c1c(O)c(-c2ccc(O)c(O)c2)oc2cc(O)cc(O)c12` [Quercetin standard, Quercetin], the “Specific Activity” value was found to be 6.3. Also, the “Potency compared to Celebrex” value (COX-2 potency relative to Celebrex) amounted to 78%.

The values above are taken from patent US8337914B2, “Dietary food supplement containing natural cyclooxygenase inhibitors and methods for inhibiting pain and inflammation” (Access Business Group International LLC, priority 1999, dated 2012).
